Assays:
NMDA NR1/NR2B receptor = biological target: T1, NMDA NR1/NR2B receptor (Homo sapiens, UniProt Q05586+Q13224); assay: In vitro NMDA NR1/NR2b cell assay (FLIPR, intracellular calcium induced by glycine/glutamate); assay type: cell-based; settings: HEK293 cells expressing NMDA NR1/NR2B, 20 μM glycine, 1 μM glutamate, compounds of the invention (Table 1)
T1 construct: host or cells: HEK293, tetracycline-inducible expression
Description: A human HEK293 cell line with tetracyclin-inducible expression of NMDA NR1/NR2B receptor was used as a test system for compound efficacy and potency. The cell line was purchased from ChanTest, Catalog # CT6121. Compound activity was determined by measuring the effect of compounds on intracellular calcium concentration induced by glycine/glutamate agonism in a FLIPRtetra system (Molecular Devices).
The cells were obtained as frozen cells in cryo-vials and stored until use at −150° C. Cells were grown in culture medium (DMEM/F12, 10% FBS, 5 μg/mL Blasticidin, 150 μg/mL Zeozin, 500 μg/mL Geneticin). […] For sub-culturing the cells were detached from flasks by Versene. For the assay, cells were detached, washed twice with induction medium (DMEM/F12 without glutamine, 10% FBS, 2 μg/mL Tetracycline, 2 mM Ketamine) and seeded to 384 well pure coat amine plates (BD 359324, 50000 cells per well in 50 μl) 48 h prior to assay in induction medium.
The test compounds were dissolved in 100% DMSO at a concentration of 10 mM and in a first step diluted in DMSO to a concentration of 5 mM, followed by serial dilution steps in 100% DMSO. Dilution factor and number of dilution steps may vary according to needs. Typically 8 different concentrations by 1:5 dilutions were prepared in duplicate, further intermediate dilutions (1:37.5) of the substances were carried out with aqueous assay buffer (137 mM NaCl, 4 mM KCl, 1.8 mM CaCl, 10 mM HEPES, 10 mM Glucose, pH 7.4) resulting in a compound concentration 3 times above the final test concentration and DMSO at 2.7% resulting in 0.9% final DMSO concentration in the assay.
At the assay day cells were washed 3× with assay puffer, 10 μL buffer remained in the wells after washing. 10 μL Ca kit loading buffer (AAT Bioquest) was added to the cells and the plates were incubated with lid for 60 minutes at r.t. 20 μl assay buffer containing 60 μM glycine (20 μM final) and 3 μM glutamate (1 μM final) was added to column 1-23. Fluorescence (indicating the calcium influx as a result of the NR1/NR2B ion channel activation) was read on the FLIPRtetra device for 60 seconds to monitor the glutamate induced effects. After 2 minutes 20 μL of compound or controls (row 1-22) in assay buffer were carefully added to the wells. […] The average of 2 measurements at 5 minutes and 5 min 10 seconds after compound addition is calculated and further used for IC50 calculations. Each assay microtiter plate contained wells (in column 23 or 24) with DMSO controls instead of compound as controls for glycine/glutamate induced fluorescence (high controls) and wells with 1 μM of a reference NR2b NAM as low controls (Compound 22; reference: Layton, Mark E et al, ACS Chemical Neuroscience 2011, 2(7), 352-362).
The output file of the reader contains the well number and measured average fluorescence units. For data evaluation and calculation, the measurement of the low control was set as 0% control and the measurement of the high control was set as 100% control. The IC50 values were calculated using the standard 4 parameter logistic regression formula. Calculation: [y=(a−d)/(1+(x/c)^b)+d], a=low value, d=high value; x=conc M; c=IC50 M; b=slope.

[1] = Metabolic stability in pooled human liver microsomes; assay type: in vitro ADME; settings: pH 7.6; pooled human liver microsomes 1 mg/mL, 1 μM compound, 37° C., NADPH; read-out: Half-life - t½ human liver microsomes
Text: Stability in human liver microsomes refers to the susceptibility of compounds to biotransformation in the context of selecting and/or designing drugs with favorable pharmacokinetic properties. The primary site of metabolism for many drugs is the liver. Human liver microsomes contain the cytochrome P450s (CYPs), and thus represent a model system for studying drug metabolization in vitro. Enhanced stability in human liver microsomes is associated with several advantages, including increased bioavailability and adequate half-life, which can enable lower and less frequent dosing of patients. Thus, enhanced stability in human liver microsomes is a favorable characteristic for compounds that are to be used for drugs.
The metabolic degradation of the test compound was assayed at 37° C. with pooled human liver microsomes. The final incubation volume of 60 μl per time point contains TRIS buffer pH 7.6 at room temperature (0.1 M), magnesium chloride (5 mM aqueous solution), microsomal protein (1 mg/mL for human) and the test compound at a final concentration of 1 μM. Following a short preincubation period at 37° C., the reactions were initiated by addition of betanicotinamide adenine dinucleotide phosphate, reduced form (NADPH, 1 mM), and terminated by transferring an aliquot into solvent after different time points. After centrifugation (10000 g, 5 min), an aliquot of the supernatant was assayed by LC-MS/MS for the amount of parent compound. The half-life was determined by the slope of the semi-logarithmic plot of the concentration-time profile.

T1 sequence (Q13224 27-1484, other chains not shown): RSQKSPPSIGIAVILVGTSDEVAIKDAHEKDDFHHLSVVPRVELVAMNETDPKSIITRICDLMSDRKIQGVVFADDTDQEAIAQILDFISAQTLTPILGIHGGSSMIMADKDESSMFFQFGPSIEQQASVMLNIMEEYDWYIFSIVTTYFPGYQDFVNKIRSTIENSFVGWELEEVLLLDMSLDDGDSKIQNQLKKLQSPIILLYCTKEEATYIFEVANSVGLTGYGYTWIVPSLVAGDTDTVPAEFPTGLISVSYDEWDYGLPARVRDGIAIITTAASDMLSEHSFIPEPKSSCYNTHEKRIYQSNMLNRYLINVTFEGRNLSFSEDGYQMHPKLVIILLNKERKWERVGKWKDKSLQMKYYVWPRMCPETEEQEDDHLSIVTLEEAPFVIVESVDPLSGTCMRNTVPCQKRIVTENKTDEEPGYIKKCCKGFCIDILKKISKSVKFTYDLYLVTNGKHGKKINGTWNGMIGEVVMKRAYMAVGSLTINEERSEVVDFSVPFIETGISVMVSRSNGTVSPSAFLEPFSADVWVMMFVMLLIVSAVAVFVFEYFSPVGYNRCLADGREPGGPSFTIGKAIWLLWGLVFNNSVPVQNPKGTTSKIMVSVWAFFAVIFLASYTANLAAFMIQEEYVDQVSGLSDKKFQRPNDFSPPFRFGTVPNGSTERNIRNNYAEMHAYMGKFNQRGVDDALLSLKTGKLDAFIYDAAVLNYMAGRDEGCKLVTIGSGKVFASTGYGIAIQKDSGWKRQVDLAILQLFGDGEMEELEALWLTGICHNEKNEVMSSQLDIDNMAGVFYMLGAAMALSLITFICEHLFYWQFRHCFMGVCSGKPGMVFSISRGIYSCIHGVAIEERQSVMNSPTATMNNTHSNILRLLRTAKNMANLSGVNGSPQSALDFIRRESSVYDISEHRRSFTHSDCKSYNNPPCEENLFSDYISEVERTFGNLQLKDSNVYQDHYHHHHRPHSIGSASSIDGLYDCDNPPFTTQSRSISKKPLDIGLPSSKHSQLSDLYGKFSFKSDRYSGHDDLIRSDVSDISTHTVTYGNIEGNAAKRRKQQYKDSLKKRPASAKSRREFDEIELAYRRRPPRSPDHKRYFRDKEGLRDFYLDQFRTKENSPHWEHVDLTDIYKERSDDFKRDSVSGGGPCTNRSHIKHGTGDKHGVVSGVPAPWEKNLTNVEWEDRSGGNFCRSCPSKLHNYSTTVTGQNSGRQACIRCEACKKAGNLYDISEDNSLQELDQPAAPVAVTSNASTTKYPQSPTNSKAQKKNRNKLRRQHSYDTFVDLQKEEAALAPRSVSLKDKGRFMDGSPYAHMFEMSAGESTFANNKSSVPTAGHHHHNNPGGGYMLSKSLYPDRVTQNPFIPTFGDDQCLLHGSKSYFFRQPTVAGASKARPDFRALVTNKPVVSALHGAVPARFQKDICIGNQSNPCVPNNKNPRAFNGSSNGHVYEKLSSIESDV

Row | Structure (SMILES) | IC50 (NMDA NR1/NR2B receptor) | half-life at 1 µM [1]
1 | Cc1cccc(F)c1COC(=O)N1CCO[C@H](c2nc3cccnc3[nH]2)C1 [Example 10] | 156 nM | 12 min
2 | O=C(OCc1ccccc1F)N1CCO[C@H](c2nc3cccnc3[nH]2)C1 [Example 27] | 95 nM | 130 min
3 | O=C(OCc1ccc(C(F)F)cc1)N1CCO[C@H](c2nc3cccnc3[nH]2)C1 [Example 26] | 78 nM | > 130 min
4 | O=C(OCc1c(F)cccc1F)N1CCO[C@H](c2nc3cccnc3[nH]2)C1 [Example 16] | 104 nM | > 130 min
5 | Cc1ccc(COC(=O)N2CCO[C@H](c3nc4cccnc4[nH]3)C2)cc1F [Example 12] | 73 nM | 36 min
6 | O=C(OCc1ccc(F)cc1Cl)N1CCO[C@H](c2nc3cccnc3[nH]2)C1 [Example 13] | 122 nM | 37 min
7 | Cc1ccccc1COC(=O)N1CCO[C@H](c2nc3cccnc3[nH]2)C1 [Example 8] | 404 nM | 14 min
8 | O=C(OCc1cccc(F)c1)N1CCO[C@H](c2nc3cccnc3[nH]2)C1 [Example 1] | 409 nM | 38 min
9 | Cc1ccc(COC(=O)N2CCO[C@H](c3nc4cccnc4[nH]3)C2)cc1 [Example 18] | 54 nM | 51 min
10 | Cc1ccc(COC(=O)N2CCO[C@H](c3nc4cc(F)cnc4[nH]3)C2)cc1 [Example 31] | 132 nM | 16 min
11 | O=C(OCc1ccccc1)N1CCO[C@H](c2nc3cccnc3[nH]2)C1 [Example 17] | 76 nM | > 130 min
12 | Cc1ccc(COC(=O)N2CCO[C@H](c3nc4cccnc4[nH]3)C2)c(F)c1 [Example 11] | 55 nM | 24 min
13 | O=C(OCc1ccccc1Cl)N1CCO[C@H](c2nc3cccnc3[nH]2)C1 [Example 14] | 121 nM | 27 min
14 | O=C(OCc1ccc(Cl)cc1)N1CCO[C@H](c2nc3cccnc3[nH]2)C1 [Example 28] | 42 nM | > 130 min
15 | O=C(OCc1cccc(F)c1F)N1CCO[C@H](c2nc3cccnc3[nH]2)C1 [Example 15] | 93 nM | 86 min
16 | O=C(OCc1ccc(F)cc1)N1CCO[C@H](c2nc3cccnc3[nH]2)C1 [Example 2] | 83 nM | 76 min
17 | O=C(OCc1ccc(F)cc1F)N1CCO[C@H](c2nc3cccnc3[nH]2)C1 [Example 19] | 128 nM | 130 min

Reference: US10849907B2, “Imidazopyridine derivatives and the use thereof as medicament” (Boehringer Ingelheim International GmbH, priority 2017, dated 2020)
